From patent publication US10918731B2, “HSP90 inhibitory peptide conjugate and application thereof in treating tumor” (INSTITUTE OF BASIC MEDICAL SCIENCES, CHINESE ACADEMY OF …, priority 2015, dated 2021)
pIC50: −log10 of the molar value. Ends that are not written are not given here. Peptide text beside a SMILES is read from it.

Key:
[1] = test system: Lung adenocarcinoma A549 cells; experiment: CCK-8 cytotoxicity, lung adenocarcinoma A549 cells; assay type: cell-based; conditions: human, 48 h
Method: (§1) Lung adenocarcinoma A549, breast cancer MCF-7S and melanoma A375 cells were diluted respectively to 3×10^4 cells/ml and pipetted to 96-well plate with 100 μl in each well. Twenty-four hours later, 5, 20, 80 or 320 nM DTX-P7, Paclitaxel-heptapeptide conjugate (PTX-P7), Doxorubicin-NH2-heptapeptide conjugate (DOX-P7) and Doxorubicin-OH-heptapeptide conjugate (DOX-OH-P7) were added to the wells and incubated for 48 h. Then 10 μl CCK-8 was added and measured 1.5 h later at 450 nm to calculate the viability and median inhibitory concentration IC50.

[2] = test system: breast cancer MCF-7S cells; experiment: CCK-8 cytotoxicity, breast cancer MCF-7S cells; assay type: cell-based; conditions: human, 48 h
Method: as §1

melanoma A375 cells = experiment: CCK-8 cytotoxicity, melanoma A375 cells; assay type: cell-based; conditions: human, 48 h
Method: as §1

tumor cell [3] = experiment: Autophagy: autophagosome and expression of autophagy related proteins (Beclin 1, LC3); assay type: cell-based; conditions: 6 h; for expression of autophagic Beclin1 and LC3, single agent: agent alone
Method: The cells were seeded and cultured. Targeting peptide was diluted with culture medium. Appropriate concentration of DTX was also prepared for the seeded cells. Equivalent culture medium was added as negative control group; 1×10^−9 M targeting peptide solution was added as Peptide group; 10^−9 M DTX was added as DTX group; 10^−9 M targeting peptide and […] were added as combination group (DTX+P). The cells were incubated at 37° C., 5% CO2 for 6 h to analyze the autophagosome. Protein was extracted to measured expression of autophagy related proteins.

A549 cell xenograft = experiment: Human non-small cell lung cancer A549 xenograft nude mice model, tumor growth; assay type: in vivo, BALB/c nu/nu female nude mice; conditions: 10 mg/kg based on DTX, intraperitoneal, once a week, four injections
Method: A549 cell, a non-small cell lung cancer cell line, growing in logarithmic phase were collected and gently pipetted with 1 ml F-12K media containing […] to prepare the single cell suspension, which was consequently counted with appropriate dilution. The cell suspension was mixed with Matrigel (1:3) under ice bath. The concentration of the cell suspension was adjusted to 8×10^6 cells/ml and stored at 0° C. before transplantation.
Thirty BALB/c nu/nu female nude mice (16 g) were acclimated to the environment for 1 week before the formal experiment. […]
The mice were frequently observed and tumor volume was measured with a Vernier caliper, the volume was calculated by the equation (long diameter×short diameter^2) (½), when tumor reaching a size of 100 mm^3, mice were divided into 4 groups: (1) Saline (control), (2) DTX, (3) TN-DTX and (4) DTX-P7.
Next day after animal grouping, agents were administrated via intraperitoneal injection once a week for a total of four injections. The first administrated day was recorded as Day 0 and the other administrated days were respectively recorded as Day 7, Day 14, Day 21. […]
The mice were measured and weighted every two times a week. Tumor dimensions were measured using calipers. […]

HSP90 = experiment: Western blotting of HSP90 expression in A549 cells; assay type: cell-based, human; conditions: 48 h
Method: • (1) lung adenocarcinoma A549 cells were trypsinized and then centrifuged at 800×g for 5 min. The precipitate was re-suspended with PBS and adjusted to 1×10^6 cells/ml. • (2) the cells were seeded into 6-well plate and 2 ml culture medium was added. Then the cells were incubated at 37° C., 5% CO2 overnight. • (3) The peptide was diluted with medium and 300 μl solution was added to each well with a final concentration of 1×10^−4 M. Equal volume of medium was added to the negative well. Triple wells were set for each group and experiment was repeated three times. The plate was incubated at 37° C., 5% CO2 for 48 h. Protein was extracted and subjected to Western blotting analysis.

tumor cell [4] = experiment: Apoptosis by Annexin V method and Western blotting of apoptosis related proteins; assay type: cell-based
Method: The cells were seeded and cultured. Targeting peptide was diluted with culture medium. Appropriate concentration of DTX was also prepared for the seeded cells. Equivalent culture medium was added as negative control group, 1×10^−9 M targeting peptide solution added as Peptide group, 10^−9 M DTX added as DTX group, 10^−9 M targeting peptide and […] added as combination group (DTX+P). The cells were incubated at 37° C., 5% CO2 for 6 h to analyze the apoptosis by Annexin V method. The protein was extracted to measure the expression of apoptosis related proteins.

Molecule | pIC50 [1] | pIC50 [2] | pIC50 (melanoma A375 cells) | expression of autophagic Beclin1 and LC3, single agent (tumor cell [3]) | effect on tumor growth (A549 cell xenograft) | expression of HSP90 (HSP90) | apoptosis (Annexin V), peptide alone (tumor cell [4]; 6 h, 1×10^−9 M targeting peptide) | apoptosis (Annexin V), peptide combined with DTX (tumor cell [4]; 6 h, combination group (DTX+P)) | caspase-3 cleavage, peptide alone (tumor cell [4]; Western blotting) | caspase-3 cleavage, peptide combined with DTX (tumor cell [4]; Western blotting, compared with DTX alone) | Beclin1 expression and conversion of LC3-I to LC3-II, DTX and targeting peptide simultaneously added (tumor cell [3]; combination group (DTX+P), compared with DTX treatment only)
COc1ccc2c(c1)C(=O)c1c(O)c3c(c(O)c1C2=O)C[C@@](O)(C(=O)COC(=O)CCC(=O)N[C@@H](CC(C)C)C(=O)N1CCC[C@H]1C(=O)N[C@@H](CC(C)C)C(=O)N[C@H](C(=O)N1CCC[C@H]1C(=O)N[C@@H](CC(C)C)C(=O)N1CCC[C@H]1C(=O)O)[C@@H](C)O)C[C@@H]3OC1CC(N)C(O)C(C)O1 (stereo partly drawn) [DOX-OH-P7] (HELM PEPTIDE1{[COc1ccc2c(c1)C(=O)c1c(O)c3c(c(O)c1C2=O)C[C@@](O)(C(=O)COC(=O)CCC(=O)[*:2])C[C@@H]3OC1CC(N)C(O)C(C)O1].L.P.L.T.P.L.P}$$$$V2.0) | 8.21 | 7.74 | 7.55 | – | – | – | – | – | – | – | –
CC(=O)O[C@@]12CO[C@@H]1C[C@H](O)[C@@]1(C)C(=O)[C@H](O)C3=C(C)[C@@H](OC(=O)[C@H](O)[C@@H](NC(=O)OC(C)(C)C)c4ccccc4)C[C@@](O)([C@@H](OC(=O)c4ccccc4)[C@H]21)C3(C)C [DTX, Docetaxel, reference compound] | – | – | – | enhanced the expression the Beclin 1 and conversion of LC3-I to LC3-II | obvious inhibitory effects on the tumor growth | – | – | – | – | – | –
LPLTPLP (SEQ ID No: 1) [targeting peptide] | – | – | – | did not affect the expression of these proteins | – | effectively down regulated the expression of HSP90 in a dose-dependent manner | induced apoptosis | further promoted apoptosis when combined with DTX | induce caspase-3 cleavage | the cleavage was further enhanced when combined with DTX compared with DTX alone | significantly inhibited the autophagy induced by DTX
